Experimental data: US12344595B2, “2-amino-n-phenyl-nicotinamides as NAV1.8 inhibitors” (Merck Sharp & Dohme LLC, priority 2018, dated 2025)

Molecular target: human Nav1.8 (Homo sapiens (Human), UniProt Q9Y5Y9)
Experiment: Nav1.8 Qube automated patch-clamp assay
Format: cell-based
Settings: Nav1.8 Qube Assay; human Nav1.8 channels stably expressed in HEK 293 cells
Experimental: Qube® Assay Experimental Procedure
Compounds were tested on human Nav1.8 and Nav1.5 channels stably expressed in human embryo kidney (HEK) 293 cells. Sodium current measurements on Qube® were conducted as follows: automated 384-well patch-clamp assays on the Qube® platform (Sophion Biosciences) were used to measure the inhibition of sodium flow through human Nav1.8 and Nav1.5 channels. Whole-cell voltage-clamp recordings were performed in QChips® (Sophion Biosciences) at room temperature. Nav1.8 current measurements on Qube® were obtained as follows: Nav1.8 currents were elicited with a 10 second 1 Hertz (Hz) pulse train from a holding potential of −90 millivolts (mV), delivered to the cells once per minute in the control condition (DMSO only) and after compound addition. The 1 hertz pulse train stimulation consisted of ten test pulses to 10 millivolt (mV) for 20 milliseconds (ms), each of which was followed by a 980 millisecond repolarization to −67 millivolts. At the end of the 10 second pulse train stimulation, a 5 second hyperpolarization step to −100 millivolt (mV) was used to recover Nav1.8 from fast inactivation. The peak currents elicited by the 1st and 10th test pulses were used to determine IC50 values for resting inhibition and inactivated state inhibition. Nav1.5 current measurements on Qube® were obtained as follows: Nav1.5 currents were elicited with a 20 second 3 Hertz pulse train in the control condition (DMSO only) and after compound addition. The pulse train consisted of sixty 20 millisecond test pulses to 0 millivolt from a holding potential of −80 millivolt (mV). The average peak currents elicited by the last 3 test pulses were used to determine IC50 values for Nav1.5 inhibition.
The following buffers were used for the Qube® recordings: External buffer for Nav1.8 Qube® recording: 150 NaCl, 2 CaCl2, 5 KCl, 1 Mg Cl2, 10 HEPES, 12 Dextrose; External buffer for Qube® Nav1.5 recording: 120 N-Methyl-D-Glucamine, 40 NaCl, 1 KCl, 2.7 CaCl2, 5 HEPES, 0.5 MgCl2; and Internal buffer for Qube® recording: 120 CsF, 30 CsCl, 10 EGTA, 5 HEPES, 5 NaF, 2 MgCl2.
For all Qube® experiments offline analysis was used to determine percent inhibition as a function of drug concentration. IC50 values were determined by fitting to the Hill equation.

Sequence of human Nav1.8 (Q9Y5Y9 whole entry): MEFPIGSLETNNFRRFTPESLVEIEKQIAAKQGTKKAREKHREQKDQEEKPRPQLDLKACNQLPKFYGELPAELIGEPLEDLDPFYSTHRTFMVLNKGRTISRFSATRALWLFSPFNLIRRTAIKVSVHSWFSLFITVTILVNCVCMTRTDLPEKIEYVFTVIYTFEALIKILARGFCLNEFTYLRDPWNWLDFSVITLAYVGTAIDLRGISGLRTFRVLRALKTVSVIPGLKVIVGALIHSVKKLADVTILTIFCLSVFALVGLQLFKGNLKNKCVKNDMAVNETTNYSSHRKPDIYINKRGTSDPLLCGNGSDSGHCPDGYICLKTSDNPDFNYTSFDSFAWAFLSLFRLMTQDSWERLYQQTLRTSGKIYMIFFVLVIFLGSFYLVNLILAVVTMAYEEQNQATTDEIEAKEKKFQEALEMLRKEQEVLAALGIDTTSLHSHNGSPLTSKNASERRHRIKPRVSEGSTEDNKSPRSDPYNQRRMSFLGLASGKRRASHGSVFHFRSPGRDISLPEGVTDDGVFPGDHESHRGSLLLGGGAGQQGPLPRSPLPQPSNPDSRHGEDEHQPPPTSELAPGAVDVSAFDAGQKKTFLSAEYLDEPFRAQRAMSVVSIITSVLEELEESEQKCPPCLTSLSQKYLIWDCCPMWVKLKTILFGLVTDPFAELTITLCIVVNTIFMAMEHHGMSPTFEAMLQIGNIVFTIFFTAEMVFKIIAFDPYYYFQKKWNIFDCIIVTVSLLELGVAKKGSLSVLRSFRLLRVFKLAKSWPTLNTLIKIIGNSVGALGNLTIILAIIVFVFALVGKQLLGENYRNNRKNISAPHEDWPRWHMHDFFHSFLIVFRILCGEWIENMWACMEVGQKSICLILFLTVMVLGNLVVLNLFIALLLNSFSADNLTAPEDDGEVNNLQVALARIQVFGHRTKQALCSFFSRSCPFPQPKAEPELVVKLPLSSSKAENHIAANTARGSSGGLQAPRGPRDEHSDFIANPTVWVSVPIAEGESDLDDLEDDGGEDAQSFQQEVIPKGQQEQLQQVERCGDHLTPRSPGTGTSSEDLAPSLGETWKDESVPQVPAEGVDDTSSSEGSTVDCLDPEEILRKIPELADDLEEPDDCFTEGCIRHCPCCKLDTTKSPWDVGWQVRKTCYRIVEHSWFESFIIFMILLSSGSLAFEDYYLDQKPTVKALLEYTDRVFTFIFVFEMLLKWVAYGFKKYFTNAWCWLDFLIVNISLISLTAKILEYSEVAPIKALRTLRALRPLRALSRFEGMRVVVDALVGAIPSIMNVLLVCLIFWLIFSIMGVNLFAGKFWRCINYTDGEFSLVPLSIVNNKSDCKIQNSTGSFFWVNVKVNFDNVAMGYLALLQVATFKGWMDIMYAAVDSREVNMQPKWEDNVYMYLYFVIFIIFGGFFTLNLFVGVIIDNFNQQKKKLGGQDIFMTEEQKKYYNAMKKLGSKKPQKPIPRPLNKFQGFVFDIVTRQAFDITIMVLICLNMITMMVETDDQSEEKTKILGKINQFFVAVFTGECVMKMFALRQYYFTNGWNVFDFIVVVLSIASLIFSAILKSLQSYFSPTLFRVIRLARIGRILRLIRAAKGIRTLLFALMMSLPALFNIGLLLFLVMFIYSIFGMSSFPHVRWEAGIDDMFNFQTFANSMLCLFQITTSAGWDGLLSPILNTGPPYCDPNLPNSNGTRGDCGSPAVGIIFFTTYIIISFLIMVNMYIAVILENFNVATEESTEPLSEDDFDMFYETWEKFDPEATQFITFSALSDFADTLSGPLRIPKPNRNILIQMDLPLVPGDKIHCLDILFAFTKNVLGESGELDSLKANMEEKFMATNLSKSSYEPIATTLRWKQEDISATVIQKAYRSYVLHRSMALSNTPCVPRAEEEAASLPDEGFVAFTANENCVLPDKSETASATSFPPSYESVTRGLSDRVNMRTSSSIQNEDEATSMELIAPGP

| IC50 [nM] | Compound |
| --- | --- |
| 7.5 | NS(=O)(=O)c1cccc(NC(=O)c2cc(OC(F)F)cnc2N2CCCC(F)(F)CC2)c1 [Example 172, 2-(4,4-difluoroazepan-1-yl)-5-(difluoromethoxy)-N-(3-sulfamoylphenyl)nicotinamide] |
| 7.6 | Cc1c(F)c(Cl)nc(N2CCCCCC2)c1C(=O)Nc1cccc(S(N)(=O)=O)c1 [Example 3, 2-(azepan-1-yl)-6-chloro-5-fluoro-4-methyl-N-(3-sulfamoyl-phenyl)pyridine-3-carboxamide] |
| 2.5 | NS(=O)(=O)c1cccc(NC(=O)c2cc(C3CCC3)cnc2N2CCCC(F)(F)CC2)c1 [Example 159, 5-cyclobutyl-2-(4,4-difluoroazepan-1-yl)-N-(3-sulfamoylphenyl)nicotinamide] |
| 10 | Cc1nc(N2CCCCCC2)c(C(=O)Nc2cccc(S(N)(=O)=O)c2)cc1C#N [Example 157, 2-(azepan-1-yl)-5-cyano-6-methyl-N-(3-sulfamoylphenyl)-pyridine-3-carboxamide] |
| 2.4 | C[C@@H]1CN(c2ncc(C(F)(F)F)cc2C(=O)Nc2cccc(S(N)(=O)=O)c2)C[C@H](C)C1(F)F [Example 125, 2-[(3S,5R)-4,4-difluoro-3,5-dimethyl-1-piperidyl]-N-(3-sulfamoylphenyl)-5-(trifluoromethyl)-pyridine-3-carboxamide] |
| 29 | CS(=O)(=O)c1cccc(NC(=O)c2cc(Br)cnc2N2CCCCCC2)c1 [Example 35, 2-(azepan-1-yl)-5-bromo-N-(3-methylsulfonyl-phenyl)pyridine-3-carboxamide] |
| 54 | Cc1nc(N2CCCCC2)c(C(=O)Nc2cccc(S(C)(=O)=O)c2)c(C)c1Cl [Example 12, 5-chloro-4,6-dimethyl-N-(3-methylsulfonyl-phenyl)-2-(1-piperidyl)pyridine-3-carboxamide] |
| 13 | Cc1nc(N2CCC3(CC2)CC3)c(C(=O)Nc2cccc(C(N)=O)c2)c(C)c1Cl [Example 13, 2-(6-azaspiro[2.5]-octan-6-yl)-N-(3-carbamoyl-phenyl)-5-chloro-4,6-dimethyl-pyridine-3-carboxamide] |
| 28 | Cc1nc(N2CCCC(F)(F)CC2)c(C(=O)Nc2cccc(C(N)=O)c2)cc1C#N [Example 177, N-(3-carbamoylphenyl)-5-cyano-2-(4,4-difluoroazepan-1-yl)-6-methyl-pyridine-3-carboxamide] |
| 180 | NC(=O)c1cccc(NC(=O)c2ccc(C(F)(F)F)nc2N2CCC3(CC2)CC3)c1 [Example 83, N-(3-carbamoyl-phenyl)-2-(6-azaspiro[2.5]octan-6-yl)-6-(trifluoro-methyl)-nicotinamide] |
| 2160 | NS(=O)(=O)c1cccc(NC(=O)c2cc(C(F)(F)F)cnc2N2CC3COC(C3)C2)c1 (stereo not shown) [Example 64, 2-(6-oxa-3-azabicyclo[3.2.1]octan-3-yl)-N-(3-sulfamoyl-phenyl)-5-(trifluoro-methyl)pyridine-3-carboxamide] |
| 32 | COc1nc(N2CCCCCC2)c(C(=O)Nc2cccc(S(N)(=O)=O)c2)cc1C [Example 155, 2-(azepan-1-yl)-6-methoxy-5-methyl-N-(3-sulfamoylphenyl)nicotinamide] |

Continued, compound first:

| Compound | IC50 [nM] |
| --- | --- |
| NS(=O)(=O)c1cc(NC(=O)c2cc(C(F)(F)F)cnc2N2CCCCC2)ccc1F [Example 115, N-(4-fluoro-3-sulfamoyl-phenyl)-2-(1-piperidyl)-5-(trifluoro-methyl)pyridine-3-carboxamide] | 567 |
| NS(=O)(=O)c1cccc(NC(=O)c2cc(C(F)(F)F)cnc2N2CCC(F)(F)CC2)c1F [Example 170, 2-(4,4-difluoropiperidin-1-yl)-N-(2-fluoro-3-sulfamoylphenyl)-5-(trifluoromethyl)nicotinamide] | 119 |
| NS(=O)(=O)c1cccc(NC(=O)c2cc(C(F)(F)F)cnc2N2CCCC(F)(F)C2)c1 [Example 51, 2-(3,3-difluoro-1-piperidyl)-N-(3-sulfamoylphenyl)-5-(trifluoromethyl)-pyridine-3-carboxamide] | 244 |
| O=C(Nc1cccc(S(=O)(=O)N2CCCC2)c1)c1cc(C(F)(F)F)cnc1N1CCCCCC1 [Example 24, 2-(azepan-1-yl)-N-(3-pyrrolidin-1-yl-sulfonylphenyl)-5-(trifluoromethyl)-pyridine-3-carboxamide] | 4430 |
| NS(=O)(=O)c1cccc(NC(=O)c2cc(C(F)(F)F)cnc2N2CCCC3(C2)CC3(F)F)c1 (single isomer, unassigned) [Example 127, 2-[(3R or 3S)-2,2-difluoro-5-azaspiro[2.5]-octan-5-yl]-N-(3-sulfamoylphenyl)-5-(trifluoromethyl)-pyridine-3-carboxamide] | 110 |
| CN1C2CCC1CN(c1ncc(C(F)(F)F)cc1C(=O)Nc1cccc(S(N)(=O)=O)c1)C2 (racemic) [Example 71, 2-[rac-(1S,5R and 1R,5S)-8-methyl-3,8-diazabicyclo[3.2.1]-octan-3-yl]-N-(3-sulfamoylphenyl)-5-(trifluoromethyl) pyridine-3-carboxamide] | 5550 |
| CS(=O)(=O)c1cccc(NC(=O)c2cc(C(F)(F)F)cnc2N2CCCC(F)(F)C2)c1 [Example 102, 2-(3,3-difluoro-1-piperidyl)-N-(3-methylsulfonylphenyl)-5-(trifluoromethyl)-pyridine-3-carboxamide] | 706 |
| NS(=O)(=O)c1cccc(NC(=O)c2cc(C(F)(F)F)cnc2N2CCC(F)(F)C2)c1 [Example 60, 2-(3,3-difluoropyrrolidin-1-yl)-N-(3-sulfamoyl-phenyl)-5-(trifluoromethyl) pyridine-3-carboxamide] | 737 |
| CC1(O)CCCN(c2ncc(C(F)(F)F)cc2C(=O)Nc2cccc(S(N)(=O)=O)c2)CC1 (stereo not shown) [Example 53, 2-(4-hydroxy-4-methyl-azepan-1-yl)-N-(3-sulfamoylphenyl)-5-(trifluoromethyl)-pyridine-3-carboxamide] | 304 |
| CS(=O)(=O)c1cccc(NC(=O)c2cc(C(F)(F)C(F)(F)F)cnc2N2CCCCCC2)c1 [Example 166, 2-(azepan-1-yl)-N-(3-methylsulfonylphenyl)-5-(1,1,2,2,2-penta-fluoroethyl)pyridine-3-carboxamide] | 30 |
| COC1CCN(c2ncc(C(F)(F)F)cc2C(=O)Nc2cccc(S(N)(=O)=O)c2)CC1 [Example 66, 2-(4-methoxy-1-piperidyl)-N-(3-sulfamoylphenyl)-5-(trifluoromethyl) pyridine-3-carboxamide] | 2610 |
| COc1ccc(C(=O)Nc2cccc(S(N)(=O)=O)c2)c(N2CCCCCC2)n1 [Example 91, 2-(azepan-1-yl)-6-methoxy-N-(3-sulfamoyl-phenyl)pyridine-3-carboxamide] | 29 |
| Cc1nc2c(o1)CCN(c1ncc(C(F)(F)F)cc1C(=O)Nc1cccc(S(N)(=O)=O)c1)C2 [Example 73, 2-(2-methyl-6,7-dihydro-4H-oxazolo[4,5-c]pyridin-5-yl)-N-(3-sulfamoyl-phenyl)-5-(trifluoro-methyl)pyridine-3-carboxamide] | 8390 |
| CC(C)S(=O)(=O)c1cccc(NC(=O)c2cc(C(F)(F)F)cnc2N2CCCCCC2)c1 [Example 117, 2-(azepan-1-yl)-N-(3-isopropylsulfonylphenyl)-5-(trifluoromethyl)-pyridine-3-carboxamide] | 778 |
| NS(=O)(=O)c1cccc(NC(=O)c2cc(C(F)(F)F)cnc2N2CC3CCC3(C(F)(F)F)C2)c1 (single isomer, unassigned) [Example 130, N-(3-sulfamoylphenyl)-5-(trifluoromethyl)-2-[(1R,5R or 1S,5S)-1-(trifluoromethyl)-3-azabicyclo[3.2.0]heptan-3-yl]pyridine-3-carboxamide] | 16 |
| NS(=O)(=O)c1cccc(NC(=O)c2cc(C3CC3)cnc2N2CCCC(F)(F)CC2)c1 [Example 163, 5-cyclopropyl-2-(4,4-difluoroazepan-1-yl)-N-(3-sulfamoyl-phenyl)nicotinamide] | 7.3 |
| CC(C)CS(=O)(=O)c1cccc(NC(=O)c2cc(C(F)(F)F)cnc2N2CCCCCC2)c1 [Example 119, 2-(azepan-1-yl)-N-(3-isobutylsulfonylphenyl)-5-(trifluoromethyl)-pyridine-3-carboxamide] | 2400 |
| Cc1nc(N2CCCC(F)(F)CC2)c(C(=O)N(C)c2cccc(S(N)(=O)=O)c2)c(C)c1Cl [Example 179, 5-chloro-2-(4,4-difluoroazepan-1-yl)-N,4,6-trimethyl-N-(3-sulfamoylphenyl)nicotinamide] | 873 |
| NS(=O)(=O)c1cccc(NC(=O)c2cc(C(F)(F)F)cnc2N2CCS(=O)(=O)CC2)c1 [Example 70, 2-(1,1-dioxo-1,4-thiazinan-4-yl)-N-(3-sulfamoylphenyl)-5-(trifluoromethyl)pyridine-3-carboxamide] | 5480 |
